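Values below derive from 48-hour exposures of cells grown in 96-well plates, with endpoints linearly interpolated between the two concentrations bracketing the appropriate inhibition level. Here, GI50 denotes the concentration required for 50% inhibition of growth. TGI marks complete inhibition of growth.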 Where only a bound is given, the exact number is not on record here.

Among the test systems are SK-OV-3 ovarian; A549 NSCLC; NCI/ADR-RES ovarian; SF-268 CNS; PC-3 prostate; HS 578T breast; HT29 colon; IGROV1 ovarian; MCF7 breast; HCT-116 colon.
Common to all, as to assay: growth of human tumour cells (NCI), 48 h

On to `COc1ccc2c(c1)nc(C(=O)c1ccco1)c(C(F)(F)F)[n+]2[O-]`, for which the GI50 in the test on SK-OV-3 ovarian was greater than 100 µM; with A549 NSCLC, greater than 100 µM; with NCI/ADR-RES ovarian it was greater than 100 µM; in the test on SF-268 CNS it was 83.8 µM; in the test on PC-3 prostate, 77.4 µM; in the test with HS 578T breast it was greater than 100 µM. The GI50 in the test with HT29 colon, in the test on IGROV1 ovarian, in the test on MCF7 breast and in the test on HCT-116 colon was greater than 100 µM each time. Further, the TGI in the test with SK-OV-3 ovarian, in the test with A549 NSCLC, in the test on NCI/ADR-RES ovarian, in the test with SF-268 CNS, in the test on PC-3 prostate and in the test on HS 578T breast was greater than 100 µM throughout. Further, the TGI with HT29 colon, in the test with IGROV1 ovarian, in the test on MCF7 breast and with HCT-116 colon was greater than 100 µM throughout.
With `NCCCC[C@@H]1NC(=O)[C@H](CC(=O)O)NC(=O)CNC(=O)[C@H](CCCN=C(N)N)NC(=O)[C@@H](N)CSSC[C@@H](C(=O)O)NC(=O)[C@H](CC(=O)O)NC(=O)[C@@H]2CCCN2C(=O)CNC1=O`, the GI50 with SK-OV-3 ovarian, in the test on A549 NSCLC, with NCI/ADR-RES ovarian, in the test on SF-268 CNS, in the test on PC-3 prostate and in the test on HS 578T breast was greater than 100 µM in each case. In addition, the GI50 in the test on HT29 colon, in the test with IGROV1 ovarian, in the test with MCF7 breast and in the test on HCT-116 colon was greater than 100 µM in each case. Further, the TGI with SK-OV-3 ovarian, in the test with A549 NSCLC, in the test with NCI/ADR-RES ovarian, in the test with SF-268 CNS, in the test with PC-3 prostate and in the test with HS 578T breast was greater than 100 µM in each case. For the same compound, the TGI with HT29 colon, with IGROV1 ovarian, with MCF7 breast and in the test with HCT-116 colon was greater than 100 µM each time.
In the case of `CC1=C(SCCC(=O)OC(C[Se]C2=C(C)C(=O)c3ccccc3C2=O)C(=O)NCCCCCC(=O)OCc2ccccc2)C(=O)c2ccccc2C1=O` (stereo not given), the GI50 in the test with SK-OV-3 ovarian is 7.1 µM; in the test with A549 NSCLC it was 3.95 µM; with NCI/ADR-RES ovarian, 4.59 µM; in the test with SF-268 CNS, 7.33 µM; in the test on PC-3 prostate, 2.55 µM; in the test with HS 578T breast, 7.6 µM. Also, the GI50 with HT29 colon was 3.56 µM; in the test on IGROV1 ovarian, 2.13 µM; in the test with MCF7 breast it was 4.75 µM; in the test on HCT-116 colon it was 1.99 µM. Further, the TGI is 19.7 µM with SK-OV-3 ovarian; 11.4 µM with A549 NSCLC; 18.3 µM in the test with NCI/ADR-RES ovarian; 19.9 µM with SF-268 CNS; 9.13 µM in the test with PC-3 prostate; greater than 100 µM with HS 578T breast. Besides, the TGI in the test with HT29 colon was found to be 13.3 µM; in the test on IGROV1 ovarian, 14.5 µM; in the test with MCF7 breast, 29.6 µM; in the test on HCT-116 colon it was 4.6 µM.
Regarding `CCN(CC)CCCNc1cc(OC)cc2nc3cc(Cl)ccc3nc12`, the GI50 with SK-OV-3 ovarian is 3.6 µM; with A549 NSCLC, 1.18 µM; in the test on NCI/ADR-RES ovarian, 1.64 µM; with SF-268 CNS, 1.62 µM; in the test on PC-3 prostate, 1.97 µM; with HS 578T breast, 2.53 µM. Besides, the GI50 in the test on HT29 colon was 0.399 µM; in the test with IGROV1 ovarian, 1.96 µM; in the test with MCF7 breast it was 1.5 µM; in the test with HCT-116 colon it was 0.508 µM. Further, the TGI is 14.6 µM with SK-OV-3 ovarian; 5.3 µM in the test with A549 NSCLC; 8.52 µM in the test with NCI/ADR-RES ovarian; 8.26 µM in the test on SF-268 CNS; 7.43 µM in the test on PC-3 prostate; 9.48 µM in the test with HS 578T breast. Also, the TGI with HT29 colon turned out to be 1.87 µM; with IGROV1 ovarian, 6.78 µM; in the test on MCF7 breast, 6.51 µM; in the test on HCT-116 colon, 3.63 µM.
Take `O=C(CCCN1CCC(O)(c2ccc(Cl)cc2)CC1)c1ccc(F)cc1`: the TGI in the test with SK-OV-3 ovarian is greater than 100 µM; with A549 NSCLC, greater than 100 µM; in the test with NCI/ADR-RES ovarian it was 88.8 µM; in the test on SF-268 CNS, greater than 100 µM; in the test with PC-3 prostate, greater than 100 µM; in the test with HS 578T breast it was 65.9 µM. The TGI in the test on HT29 colon is greater than 100 µM; in the test with IGROV1 ovarian, greater than 100 µM; with MCF7 breast, greater than 100 µM; in the test on HCT-116 colon, 33.6 µM.
For the compound `Cc1cc2c(cc1Cl)S/C(=C/C(=O)O)C(Nc1ccc3ncsc3c1)=NS2(=O)=O`, the GI50 was greater than 33.4 µM with SK-OV-3 ovarian; greater than 25 µM in the test with A549 NSCLC; greater than 18.1 µM in the test on NCI/ADR-RES ovarian; greater than 23.9 µM with SF-268 CNS; 14.2 µM in the test with PC-3 prostate; 9.81 µM with HS 578T breast. The GI50 is 19.4 µM with HT29 colon, 31.9 µM with IGROV1 ovarian, 8.75 µM in the test on MCF7 breast and 9.93 µM with HCT-116 colon. The TGI with SK-OV-3 ovarian was greater than 52 µM; with A549 NSCLC, greater than 62 µM; in the test on NCI/ADR-RES ovarian, greater than 34.7 µM; with SF-268 CNS, greater than 74.9 µM; in the test on PC-3 prostate, greater than 49.4 µM; in the test on HS 578T breast, greater than 40.9 µM. Also, the TGI is greater than 100 µM with HT29 colon, greater than 100 µM with IGROV1 ovarian, greater than 92.5 µM with MCF7 breast and greater than 42.9 µM in the test on HCT-116 colon.

The values above are taken from PubChem BioAssay (NCI).
